{"source": "paper PMC12501029", "about": "“Discovery of a CNS active GSK3 degrader using orthogonally reactive linker screening” (Nature Communications, 2025)", "test_system": "GSK3β Ser9 and GSK3β Tyr216 phosphorylation", "experiment": "GSK3β phosphorylation (Ser9, Tyr216) immunoblot in HEK293 cells", "type": "cell-based, human", "conditions": "10 nM 24, 27; 10 nM and 1 µM 29; 30 min", "experimental": "HEK293, HAP1, HAP1 CRBN KO and SH-SY5Y cells were plated in either 6 cm plates or 6-well plates at varying densities (0.5–0.7 × 10^6 cells per plate or wells), and MEF cells were plated in 10 cm plates (1–1.2 × 10^6 cells per plate) depending on experimental set up in respective culturing condition as described above. Stock solutions of compounds were prepared as 10 mM in DMSO (Sigma–Aldrich). Working dilutions were made up fresh in DMSO and culturing media or differentiation media was refreshed prior to any compound treatments. For mode of action studies, cells were pre-treated with inhibitors for 2 h: 1 µM MG132 (Merck, 474790-5 mg), 1 µM MLN4924 (Merck, 5054770001) or 1 µM GSK3 inhibitor (compound 29), before treating with PROTACs for 2, 4 or 24 h as indicated in figure legends. Cells were washed twice with ice-cold PBS (Gibco), harvested in PBS and pelleted, cells were resuspended in RIPA buffer supplemented with complete EDTA-free protease inhibitor cocktail (Roche,11873580001, 1/10 mL) and phosSTOP (Roche, 04906845001, 1 tablet/10 mL) for 20 min lysis on ice then cleared via centrifugation at 16,000 × g, 4 °C for 20 min. SH-SY5Y cells were lysed in 500 µL ice-cold lysis buffer (25 mM Tris-HCl (pH 7.4), 50 mM NaF, 100 mM NaCl, 1 mM EDTA, 4 mM EGTA, 1% (v/v) Triton-X-100, 0.09% (w/v) sucrose, 10 mM sodium pyrophosphate, 10 mM sodium vanodate, 0.1% (v/v) β-mercaptoethanol, supplemented with complete mini protease inhibitor tablet (Sigma; 1 tablet/ 10 mL buffer)). Lysates were flash frozen, thawed and centrifugated at 16,000 × g, 4 °C for 20 min. Following clearance of lysates, protein concentrations were determined by the BCA assay (Fisher Scientific, 23225) or Bradford assay (Bio-rad). Five to thirty micrograms of protein from lysates were prepared in 4×LDS buffer (Thermo Fisher) and 50 mM dithiothreitol (DTT) denaturated at 95 °C for 5 min. Proteins were separated on NuPAGE 4–12% Bis-Tris gels (Invitrogen) or 4–12% Novex Tris-glycine gels (Invitrogen) in MOPS buffer (Invitrogen) and transferred onto nitrocellulose membranes using an iBlot3 system (Thermo Fisher Scientific) or nitrocellulose membranes (Cytiva) in cold tris-glycine-methanol buffer (25 mM Tris (pH 7.5), 192 mM glycine, 20% (v/v) methanol). Membranes were blocked with either 5% fat-free milk (Marvel) or 1% (w/v) BSA (Sigma) in TBS-T (20 mM Tris (pH 7.5), 150 mM NaCl, 0.1% (v/v) Tween-20 (Sigma)) at room temperature for 30 min, or in the case of SH-SY5Y assays, 1 h, before incubating with primary antibodies overnight at 4 °C on a rocker. […]", "data": [{"smiles": "Cn1nc(N2CCC(=O)NC2=O)c2ccc(CN3CCN(Cc4ccc(-c5cn(-c6ccc(-c7cn8nccc(C(=O)Nc9cnccc9N9CCOCC9)c8n7)cc6)nn5)nc4)CC3)cc21", "note": "[compound 24]", "values": [{"measurement": "impact on GSK3β Ser9 or GSK3β Tyr216 phosphorylation prior to degradation", "value": "no impact observed"}]}]}
